# Laboratory results as given in PMC4321955 (Free radical biology & medicine, 2013).
# What was measured:
# [1] = tested on: complex I; experiment: rate of reverse electron transport from succinate to NAD; format: biochemical, rat
# [2] = molecular target: ubiquinone-binding site of complex I (site IQ) (Rattus norvegicus, UniProt A6K8N6+P03889+Q641Y2); experiment: site IQ superoxide/H2O2 production assay; format: biochemical; conditions: at the compound's estimated IC50 (80 µM for compound 15); 5 mM succinate
# [3] = tested on: site IF/DH (site IF plus matrix NAD-linked dehydrogenases); experiment: site IF/DH superoxide/H2O2 production assay; format: biochemical, rat
# [4] = tested on: site IF; experiment: steady-state H2O2 production specifically from site IF; format: biochemical, rat; conditions: […] CN-POBS; 5 mM malate, […] ATP, 1.5 mM aspartate, 4 µM rotenone, 1 µg/mL oligomycin
# [5] = tested on: outer ubiquinone-binding site of complex III (site IIIQo); experiment: site IIIQo superoxide/H2O2 production assay; format: biochemical, rat
# [6] = ref NCBI PubChem compound database; cited from earlier work
# [7] = tested on: mitochondrial sn-glycerol 3-phosphate dehydrogenase (mGPDH); experiment: mGPDH superoxide/H2O2 production assay; format: biochemical, rat
# [8] = tested on: mitochondrial membrane potential (ΔΨm); experiment: ΔΨm assay with potentiometric dye TMRM; format: biochemical, rat; conditions: for lowest concentration that significantly decreased ΔΨm: 5 mM glutamate plus 5 mM malate
# [9] = tested on: flavin site of complex II (site IIF); experiment: site IIF superoxide/H2O2 production assay; format: biochemical, rat
# [10] = tested on: site IQ; format: biochemical, rat; conditions: […] CN-POBS
# [11] = at the compound's estimated site IQ IC50 (80 µM for compound 15)
# [12] = dose-response 0.08-80 µM, none observed below this
compound,measurement,setting,value
"O=[N+]([O-])c1ccc(Oc2ccc(S(=O)(=O)NC3CCCCC3)cc2)cc1 [CN-POBS, N-cyclohexyl-4-(4-nitrophenoxy)benzenesulfonamide]",concentration with significant effect on reverse electron flux through complex I (rate of NAD(P)+ reduction),"[1]; 5 mM succinate plus 0.5 mM glutamate, no significant effect below this",≥ 25 µM
same,Rate of NAD(P)+ Reduction: normalized percent change from DMSO,"[1]; at the compound's estimated site IQ IC50, succinate via complex I",−1%
same,IQ: normalized percent change from DMSO in H2O2 production,[2],−56%
same,IF/DH: normalized percent change from DMSO in H2O2 production,[3]; [11],7%
same,concentration with significant effects on H2O2 production from site IF/DH,[3]; [12],≥ 25 µM
same,effect on H2O2 production specifically from site IF,[4],no effect
same,IIIQo: normalized percent change from DMSO in H2O2 production,[5]; [11],0%
same,concentration with significant effects on H2O2 production from site IIIQo,[5]; [12],≥ 25 µM
same,LogP,[6],4.1
same,mGPDH: normalized percent change from DMSO in H2O2 production,[7]; [11],−2%
same,concentration with significant effects on H2O2 production from mGPDH,[7]; [12],≥ 25 µM
same,lowest concentration that significantly decreased ΔΨm,"[8]; absence of nigericin, TMRM",8 µM
same,lowest concentration that significantly decreased ΔΨm,"[8]; presence of nigericin, TMRM",25 µM
same,concentration that significantly decreased ΔΨm,"[8]; 5 mM succinate and 4 µM rotenone, TMRM",80 µM
same,ΔΨm: normalized percent change from DMSO,[8]; [11],−1%
same,IIF: normalized percent change from DMSO in H2O2 production,[9]; [11],4%
same,concentration with significant effects on H2O2 production from site IIF,[9]; [12],≥ 25 µM
same,decrease in total rate of H2O2 production,[10]; 5 mM succinate alone,50%
same,effect on H2O2 production by succinate in the presence of rotenone (from site IF/DH),[10]; 5 mM succinate with 4 µM rotenone,no significant effect
